The record followed here is ChEMBL document CHEMBL1133078, “Isoxazolines and isoxazoles as factor Xa inhibitors” (Bioorg Med Chem Lett, 2000).

For series [1], the target named is T1, Coagulation factor X (Oryctolagus cuniculus, UniProt O19045).
T1 sequence (O19045 whole entry): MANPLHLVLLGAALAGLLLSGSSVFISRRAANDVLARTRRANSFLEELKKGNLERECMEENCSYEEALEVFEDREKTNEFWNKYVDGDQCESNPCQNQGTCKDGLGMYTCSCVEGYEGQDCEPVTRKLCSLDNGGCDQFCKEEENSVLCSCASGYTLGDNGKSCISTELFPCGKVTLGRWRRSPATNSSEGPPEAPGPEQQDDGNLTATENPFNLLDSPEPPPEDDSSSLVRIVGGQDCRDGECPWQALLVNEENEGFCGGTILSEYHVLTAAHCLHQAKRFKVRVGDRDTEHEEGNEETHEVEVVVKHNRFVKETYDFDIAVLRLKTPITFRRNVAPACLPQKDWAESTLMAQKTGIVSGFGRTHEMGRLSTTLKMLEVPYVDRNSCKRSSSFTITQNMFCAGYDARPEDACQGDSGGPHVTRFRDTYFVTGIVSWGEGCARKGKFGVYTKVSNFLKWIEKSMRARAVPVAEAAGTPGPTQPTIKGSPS
Kind of series: Inhibitory activity against rabbit Coagulation factor X.

Series [2] is filed under the species Oryctolagus cuniculus. Kind of series: Concentration required to diminish the clot size by 50% in rabbit A-V shunt model of thrombosis. The format is functional.
Series [3] has as its target T2, Serine protease 1 (Bos taurus, UniProt P00760).
T2 sequence (P00760 whole entry): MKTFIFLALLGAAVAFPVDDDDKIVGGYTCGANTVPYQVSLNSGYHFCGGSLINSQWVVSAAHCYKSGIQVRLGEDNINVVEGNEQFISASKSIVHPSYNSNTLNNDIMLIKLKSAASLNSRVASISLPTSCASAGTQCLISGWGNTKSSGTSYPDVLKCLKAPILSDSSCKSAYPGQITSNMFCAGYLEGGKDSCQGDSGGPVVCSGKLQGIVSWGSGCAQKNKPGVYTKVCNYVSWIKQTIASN
Kind of series: Inhibitory activity against trypsin.

Series [4] deals with Coagulation factor X (Homo sapiens, UniProt P00742). Kind of series: Inhibition of human Coagulation factor X.
For series [5], the target named is Prothrombin (Homo sapiens, UniProt P00734). Kind of series: Inhibitory activity against thrombin.
Series [6] relates to Canis familiaris. The experiment in a line: Volume of distribution after intravenous administration of 1 mg/kg/h in dog. The format is ADME, organism-based, Canis lupus familiaris. On the set-up: route intravenous. To be noted: in vivo.
Series [7] in a line: Half-life after intravenous administration of 1 mg/kg/h in dog. The class given is ADME, organism-based, Canis lupus familiaris. On the set-up: route intravenous. To be noted: in vivo.
Series [8] in a line: Clearance value of compound was determined after intravenous administration of 1 mg/kg/h in dog. The class given is ADME, organism-based, Canis lupus familiaris. On the set-up: route intravenous. To be noted: in vivo.
Series [9] in a line: Volume of distribution after intravenous administration of 1 mg/kg/h in dog. The note with it: in vivo.

Sequence of Coagulation factor X (Homo sapiens, UniProt P00742) (P00742 41-179 limits assumed): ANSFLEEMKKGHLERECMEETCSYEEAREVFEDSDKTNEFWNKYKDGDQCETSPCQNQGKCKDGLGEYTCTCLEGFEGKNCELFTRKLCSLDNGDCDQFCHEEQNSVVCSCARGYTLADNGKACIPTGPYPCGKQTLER
Sequence of Coagulation factor X (Homo sapiens, UniProt P00742) (P00742 235-488 limits assumed): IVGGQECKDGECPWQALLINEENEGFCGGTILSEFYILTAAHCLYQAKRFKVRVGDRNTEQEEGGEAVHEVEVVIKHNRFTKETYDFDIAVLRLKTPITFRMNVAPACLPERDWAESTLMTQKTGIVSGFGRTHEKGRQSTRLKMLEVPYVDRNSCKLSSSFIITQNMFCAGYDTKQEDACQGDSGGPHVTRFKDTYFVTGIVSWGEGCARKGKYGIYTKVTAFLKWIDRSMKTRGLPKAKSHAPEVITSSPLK

For `COCC1(C(=O)Nc2ccc(-c3ccccc3S(N)(=O)=O)cc2)CC(c2cccc(C(=N)N)c2)=NO1` (stereo not drawn), the values for the Ki in series [1] and in series [3] were 0.8 nM and 70 nM, respectively. Also, in series [2], the ID50 worked out at 0.26 µM/h/kg.
As for `C[C@H]1ON=C(c2cccc(C(=N)N)c2)[C@@H]1C(=O)Nc1ccc(-c2ccccc2S(N)(=O)=O)cc1`, the inhibitory constant (Ki) (as a rule, the equilibrium dissociation constant of an inhibitor or competing ligand from its target) was 1.8 nM in [4], 110 nM in series [3] and 4500 nM in [5].
Regarding `CS(=O)(=O)c1ccccc1-c1ccc(NC(=O)c2conc2-c2cccc(C(=N)N)c2)cc1`, the Ki in [4] turned out to be 0.1 nM; in series [3] it was 25 nM; in series [5] it was 540 nM.
For `N=C(N)c1cccc(-c2noc(N)c2C(=O)Nc2ccc(-c3ccccc3S(N)(=O)=O)cc2)c1`, the Ki in [4] turned out to be 3.4 nM; in series [3] it was 117 nM; in [5] it was 4000 nM.
In the case of `COCc1onc(-c2cccc(C(=N)N)c2)c1C(=O)Nc1ccc(-c2ccccc2S(N)(=O)=O)cc1`, the Ki in series [4] was determined as 0.63 nM; in [3] it was 76 nM; in [5], 3800 nM. Also, in series [6], the Vdss (as a rule, the apparent volume that relates the amount in the body to the concentration in plasma or blood) is 0.85 L/kg. Also, in series [7], the half-life – broadly, how long it takes for the measured level to halve – was 1.2 h. Besides, the clearance (as a rule, the rate of elimination divided by the concentration) in [8] is 28.3 mL/min/kg.
For the compound `CC1(C(=O)Nc2ccc(-c3ccccc3S(N)(=O)=O)cc2)CC(c2cccc(C(=N)N)c2)=NO1` (stereo not drawn), in series [3], affinity was put at a Ki of 120 nM.
As for `N=C(N)c1cccc(-c2nocc2C(=O)Nc2ccc(-c3ccccc3S(N)(=O)=O)cc2)c1`, the volume of distribution (Vdss) in [6] came out at 1.7 L/kg. For the same compound, the figures for the Ki in [1], in series [3] and in series [5] were 0.4 nM, 21 nM and 2000 nM, respectively. The same compound gave a half-life in [7] of 4.3 h. The ID50 in series [2] is 0.31 µM/h/kg. For the same compound, the clearance in series [8] was 25 mL/min/kg.
For the compound `COCc1onc(-c2cccc(C(=N)N)c2)c1C(=O)Nc1ccc(-c2ccccc2S(N)(=O)=O)cn1`, the inhibition constant Ki amounted to 200 nM in series [3] and 12000 nM in [5].
For `N=C(N)c1cccc(C2=NOC(Cn3cnnn3)(C(=O)Nc3ccc(-c4ccccc4S(N)(=O)=O)cc3)C2)c1` (stereo not drawn), the affinity in series [3] corresponds to a Ki of 91 nM.
Regarding `N=C(N)c1cccc(C2=NO[C@H](Cn3cnnn3)[C@H]2C(=O)Nc2ccc(-c3ccccc3S(N)(=O)=O)cc2)c1`, the inhibitory constant (Ki) was 2.3 nM in series [4], 180 nM in [3] and 5700 nM in [5]. In series [6], the distribution volume (Vdss) is 0.24 L/kg. In series [7], this compound showed a half-life of 1 h. In addition, the clearance in series [8] was 8.17 mL/min/kg.
In the case of `COC[C@H]1ON=C(c2cccc(C(=N)N)c2)[C@@H]1C(=O)Nc1ccc(-c2ccccc2S(N)(=O)=O)cc1`, the inhibition constant (Ki) in series [1] stood at 0.64 nM; in series [3] it was 190 nM; in [5] it was 4600 nM. In series [7], the half-life was 1.2 h. The ID50 in series [2] worked out at 0.21 µM/h/kg. In series [8], this compound gave a clearance of 16.5 mL/min/kg. Besides, in series [9], the Vdss amounted to 0.38 L/kg.
Take `N=C(N)c1cccc(-c2noc(CO)c2C(=O)Nc2ccc(-c3ccccc3S(N)(=O)=O)cc2)c1`: the results for the Ki in series [4], in [3] and in [5] were 0.5 nM, 50 nM and 1900 nM, respectively.
In the same order, the values of `N=C(N)c1cccc(-c2noc(C(F)(F)F)c2C(=O)Nc2ccc(-c3ccccc3S(N)(=O)=O)cc2)c1` are 9.5 nM, 400 nM and 11000 nM.
